Structures can show the parent of a compound that is named as a salt.
Target: T1, human MC4 receptor (Homo sapiens, UniProt P32245)
T1 construct: purchased Biolinks K.K; host or cells: HEK-293
Experiment: MC4 receptor binding experiment ([125I]Nle4-D-Phe7-α-MSH displacement)
Conditions: human MC4 receptor expressing HEK-293 cell membrane; [125I]Nle4-D-Phe7-α-MSH 0.2 nM, 25° C.
Protocol: The MC4 receptor binding experiment was performed according to the method described in Pharmacology & Toxicology, 79, 161-165, 1996. The human MC4 receptor expressing-cell membrane obtained by expressing the human MC4 receptor in a HEK-293 cell was purchased from Biolinks K.K. The cell membrane was homogenized with 50 mM tris hydrochloride buffer (pH 7.4) containing 2 mM ethylenediaminetetraacetic acid, 10 mM calcium chloride, and 100 μM phenylmethylsulfonyl fluoride. The homogenate was centrifuged at 48,000×g at 4° C. for 20 min. The sediment obtained by centrifugation was rehomogenized with the same buffer, and the homogenate was centrifuged at 48,000×g at 4° C. for 20 min. This procedure was repeated twice. The sediment was suspended in 50 mM tris hydrochloride buffer (pH 7.4) containing 2 mM ethylenediaminetetraacetic acid, 10 mM calcium chloride, 100 μM phenylmethylsulfonyl fluoride, and 0.1% bovine serum albumin at a protein concentration of 100 μg/ml, and the suspension was used as a crude membrane preparation for the binding experiment. The crude membrane preparation (0.25 ml, 25 μg protein) was reacted with [^125I]Nle^4-D-Phe^7-α-MSH (final concentration, 0.2 nM) at 25° C. for 120 min. After completion of the reaction, the reaction solution was filtered by suction, using a cell harvester for the receptor binding experiment, onto a GF/C glass fiber filter paper immersed in 50 mM tris hydrochloride buffer (pH 7.4) containing 0.5% bovine serum for 2 h. Radioactivity on the filter paper was measured using a γ counter. The quantity of binding in the presence of 1 μM Nle^4-D-Phe^7-α-MSH was obtained as nonspecific binding, and specific binding was obtained by deducting the nonspecific binding from the total quantity, binding in the absence of 1 μM Nle^4-D-Phe^7-α-MSH. The test drug was dissolved in 100% DMSO solution and added to the membrane preparation at the same time as [^125I]Nle^4-D-Phe^7-α-MSH. The IC50 value was obtained from the inhibition curve in the range of 10^−10 to 10^−5 M. The binding test results of representative compounds are shown in Table 21 as examples.

T1 sequence (P32245 whole entry): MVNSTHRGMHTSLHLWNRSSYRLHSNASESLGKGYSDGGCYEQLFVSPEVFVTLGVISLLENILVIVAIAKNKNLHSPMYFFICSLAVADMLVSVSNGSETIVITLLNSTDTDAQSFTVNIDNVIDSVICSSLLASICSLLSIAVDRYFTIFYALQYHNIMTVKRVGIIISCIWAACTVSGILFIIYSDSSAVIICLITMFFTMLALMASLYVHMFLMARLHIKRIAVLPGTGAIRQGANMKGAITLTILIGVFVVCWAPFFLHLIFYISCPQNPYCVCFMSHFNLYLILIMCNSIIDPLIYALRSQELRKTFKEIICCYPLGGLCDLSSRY

IC50 | SMILES
18 nM | Cc1ccc2nc(N[C@H]3CCN(C(=O)Cc4ccc(OC(F)(F)F)cc4)C3)nc(N(C)C)c2c1 [Compound 1-003]
2.8 nM | COc1ccc2nc(N[C@H]3CCN(C(=O)Cc4ccc(OC(F)(F)F)cc4)C3)nc(N(C)C)c2c1 [Compound 1-005]
10 nM | Cc1ccc2nc(N[C@H]3CCN(C(=O)Cc4ccc(OC(F)(F)F)cc4)C3)nc(NCCc3ccccn3)c2c1 [Compound 1-019]
0.4 nM | COc1ccc2nc(N[C@H]3CCN(C(=O)Cc4ccc(OC(F)(F)F)cc4)C3)nc(N[C@@H]3CCN(C(C)=O)C3)c2c1 [Compound 1-032]
0.4 nM | COc1ccc2nc(N[C@H]3CCN(C(=O)Cc4ccc(OC(F)(F)F)cc4)C3)nc(N[C@@H]3CCN(S(C)(=O)=O)C3)c2c1 [Compound 1-040]
39 nM | O=C(c1ccc(F)cc1)C1CCN(c2nc(N[C@H]3CCN(C(=O)Cc4ccccc4-c4ccccc4)C3)nc3ccccc23)CC1 [Compound 1-073]
1.5 nM | COc1ccc2nc(N[C@H]3CCN(C(=O)Cc4ccc(OC(F)(F)F)cc4)C3)nc(N3CCC(S(C)(=O)=O)CC3)c2c1 [Compound 1-078]
37 nM | O=C(Cc1ccc(OC(F)(F)F)cc1)N1CC[C@H](Nc2nc(N3CCC(N4CCOCC4)CC3)c3ccc(F)cc3n2)C1 [Compound 1-092]
22 nM | O=C(Cc1ccccc1-c1ccccc1)N1CC[C@H](Nc2nc(N3CCC(n4ccnc4)CC3)c3ccccc3n2)C1 [Compound 1-095]
68 nM | O=C(Cc1ccccc1-c1ccccc1)N1CC[C@H](Nc2nc(N3CCc4ccccc4C3)c3ccc(F)cc3n2)C1 [Compound 1-101]
7.3 nM | O=C1CN(c2nc(N[C@H]3CCN(C(=O)Cc4ccccc4-c4ccccc4)C3)nc3ccccc23)CCN1 [Compound 1-128]
4.4 nM | O=C1CN(c2nc(N[C@H]3CCN(C(=O)Cc4cc(F)ccc4-c4ccc(OC(F)(F)F)cc4)C3)nc3cc(F)ccc23)CCN1 [Compound 1-133]
21 nM | CN(C)C(=O)N1CCN(c2nc(N[C@H]3CCN(C(=O)Cc4ccc(OC(F)(F)F)cc4)C3)nc3ccccc23)CC1 [Compound 1-174]
1 nM | COc1ccc2nc(N[C@H]3CCN(C(=O)Cc4ccc(OC(F)(F)F)cc4)C3)nc(N3CCN(C(=O)c4cccnc4)CC3)c2c1 [Compound 1-176]
2.3 nM | CO[C@H]1CN(c2nc(N[C@H]3CCN(C(=O)Cc4ccc(OC(F)(F)F)cc4)C3)nc3ccccc23)C[C@H]1OC [Compound 1-206]
6.8 nM | COc1ccc2nc(N[C@H]3CCN(C(=O)Cc4ccc(OC(F)(F)F)cc4)C3)cc(N3CCOCC3)c2c1 [Compound 3-011, (S)-1-(3-(6-methoxy-4-morpholinoquinolin-2-ylamino)pyrrolidin-1-yl)-2-(4-trifluoromethoxyphenyl)ethanone]
78 nM | Cc1cc(N[C@H]2CCN(C(=O)Cc3ccc(OC(F)(F)F)cc3)C2)nc2ccc(F)cc12 [Compound 3-019]
9.5 nM | Cc1cc(N[C@H]2CCN(C(=O)Cc3ccc(OC(F)(F)F)cc3)C2)nc2ccc(O)cc12 [Compound 3-022]
2.4 nM | COc1ccc2nc(N[C@H]3CCN(C(=O)Cc4ccc(OC(F)(F)F)cc4)C3)cc(C)c2c1 [Compound 3-023]
16 nM | COc1cc(N[C@H]2CCN(C(=O)Cc3ccc(OC(F)(F)F)cc3)C2)nc2ccc(C)cc12 [Compound 3-034]
20 nM | Cc1cc(N[C@H]2CCN(C(=O)C3(c4ccc(Cl)cc4)CC3)C2)nc2ccc(O)cc12 [Compound 3-038]
46 nM | COc1ccc2nc(N[C@H]3CCN(C(=O)C(C)(C)c4ccc(Cl)cc4)C3)cc(C)c2c1 [Compound 3-041]
30 nM | Cc1cc(N[C@H]2CCN(S(C)(=O)=O)C2)nc(N[C@H]2CCN(C(=O)Cc3ccc(OC(F)(F)F)cc3)C2)n1 [Compound 4-022]
52 nM | CCCN(CC1CC1)c1cc(C)nc(N[C@H]2CCN(C(=O)Cc3ccc(OC(F)(F)F)cc3)C2)n1 [Compound 4-035]
56 nM | Cc1cc(N2CCOCC2)nc(N[C@H]2CCN(C(=O)Cc3ccc(OC(F)(F)F)cc3)C2)n1 [Compound 4-044]

IC50 | SMILES
39 nM | Cc1cc(N2CCS(=O)(=O)CC2)nc(N[C@H]2CCN(C(=O)Cc3ccc(OC(F)(F)F)cc3)C2)n1 [Compound 4-054]
28 nM | Cc1cc(N2CCCOCC2)nc(N[C@H]2CCN(C(=O)Cc3ccc(OC(F)(F)F)cc3)C2)n1 [Compound 4-058]
9.3 nM | Cc1cc(N2CCS(=O)(=O)CC2)cc(N[C@H]2CCN(C(=O)Cc3ccc(OC(F)(F)F)cc3)C2)n1 [Compound 5-006, 1-((S)-3-(4-(1,1-dioxo-1λ^6-thiomorpholin-4-yl)-6-methylpyridin-2-ylamino)pyrrolidin-1-yl)-2-(4-trifluoromethoxyphenyl)ethanone]
71 nM | CN(C)c1nc(N[C@H]2CCN(C(=O)Cc3ccc(OC(F)(F)F)cc3)C2)nc2ccsc12 [Compound 6-001, (S)-1-(3-(4-dimethylaminothieno[3,2-d]pyrimidin-2-ylamino)pyrrolidin-1-yl)-2-(4-trifluoromethoxyphenyl)ethanone 1 maleate]
94 nM | CS(=O)(=O)C1CCN(c2cc(N[C@H]3CCN(C(=O)Cc4ccc(OC(F)(F)F)cc4)C3)nc3ccsc23)CC1 [Compound 7-002, (S)-1-(3-(7-(4-methylsulfonylpiperidin-1-yl)thieno[3,2-b]pyridin-5-ylamino)pyrrolidin-1-yl)-2-(4-trifluoromethoxyphenyl)ethanone]
11 nM | CC(=O)N1CCN(c2nc(N[C@H]3CCN(C(=O)Cc4ccc(OC(F)(F)F)cc4)C3)nc3cscc23)CC1 [Compound 8-004]
12 nM | CS(=O)(=O)C1CCN(c2nc(N[C@H]3CCN(C(=O)Cc4ccc(OC(F)(F)F)cc4)C3)nc3cscc23)CC1 [Compound 8-005]
10 nM | O=C(Cc1ccc(OC(F)(F)F)cc1)N1C[C@@H](O)[C@H](Nc2nc(N3CCOCC3)c3cscc3n2)C1 [Compound 8-006]
10 nM | CC(=O)N1CCN(c2nc(N[C@@H]3CN(C(=O)Cc4ccc(OC(F)(F)F)cc4)C[C@H]3O)nc3cscc23)CC1 [Compound 8-007]
1.3 nM | CS(=O)(=O)N1CC[C@@H](Nc2nc(N[C@@H]3CN(C(=O)Cc4ccc(OC(F)(F)F)cc4)C[C@H]3O)nc3ccc(Cl)cc23)C1 [Compound 11-008]
6.1 nM | O=C(Cc1ccc(OC(F)(F)F)cc1)N1C[C@@H](O)[C@H](Nc2nc(N3CCOCC3)c3cc(Cl)ccc3n2)C1 [Compound 11-009]
0.3 nM | COc1ccc2nc(N[C@@H]3CN(C(=O)Cc4ccc(OC(F)(F)F)cc4)C[C@H]3O)nc(N[C@@H]3CCN(S(C)(=O)=O)C3)c2c1 [Compound 11-012]
1.4 nM | COc1ccc2nc(N[C@@H]3CN(C(=O)Cc4ccc(OC(F)(F)F)cc4)C[C@H]3O)nc(N3CCC(S(C)(=O)=O)CC3)c2c1 [Compound 11-014]
1 nM | COc1ccc2nc(N[C@@H]3CN(C(=O)Cc4ccc(OC(F)(F)F)cc4)C[C@H]3O)nc(N3CCN(C(C)=O)CC3)c2c1 [Compound 11-015]
2.9 nM | COc1ccc2nc(N[C@@H]3CN(C(=O)Cc4ccc(OC(F)(F)F)cc4)C[C@H]3O)cc(N3CCOCC3)c2c1 [Compound 12-001]
13 nM | Cc1ccc2nc(N[C@@H]3CN(C(=O)Cc4ccc(OC(F)(F)F)cc4)C[C@H]3O)cc(C)c2c1 [Compound 12-004]
14 nM | Cc1cc(N[C@@H]2CN(C(=O)Cc3ccc(OC(F)(F)F)cc3)C[C@H]2O)nc2ccc(O)cc12 [Compound 12-007]
12 nM | CO[C@@H]1CN(C(=O)Cc2ccc(OC(F)(F)F)cc2)C[C@H]1Nc1cc(C)c2cc(O)ccc2n1 [Compound 12-008, 1-((3R,4R)-3-(6-hydroxy-4-methylquinolin-2-ylamino)-4-methoxypyrrolidin-1-yl)-2-(4-trifluoromethoxyphenyl)ethanone]
3 nM | COc1ccc2nc(N[C@@H]3CN(C(=O)Cc4ccc(OC(F)(F)F)cc4)C[C@H]3OC)cc(C)c2c1 [Compound 12-010]
3.3 nM | COc1ccc2nc(N[C@@H]3CN(C(=O)Cc4ccc(OC(F)(F)F)cc4)C[C@H]3O)cc(OC)c2c1 [Compound 12-017]
3.4 nM | COc1ccc2nc(N[C@@H]3CN(C(=O)Cc4ccc(OC(F)(F)F)cc4)C[C@H]3OC)cc(OC)c2c1 [Compound 12-018]
25 nM | Cc1cc(N[C@@H]2CCN(S(C)(=O)=O)C2)nc(N[C@@H]2CN(C(=O)Cc3ccc(OC(F)(F)F)cc3)C[C@H]2O)n1 [Compound 13-002]
46 nM | CO[C@@H]1CCN(c2cc(C)nc(N[C@@H]3CN(C(=O)Cc4ccc(OC(F)(F)F)cc4)C[C@H]3O)n2)C1 [Compound 13-004]
21 nM | Cc1cc(N2CCCCC2)nc(N[C@@H]2CN(C(=O)Cc3ccc(OC(F)(F)F)cc3)C[C@H]2O)n1 [Compound 13-005]
36 nM | CO[C@@H]1CN(C(=O)Cc2ccc(OC(F)(F)F)cc2)C[C@H]1Nc1nc(C)cc(N2CCOCC2)n1 [Compound 13-008]

Source: patent publication US8044068B2, “Aminopyrrolidine compound” (Taisho Pharmaceutical Co., Ltd, priority 2006, dated 2011)
